What was measured:
SK-OV-3 [1] = assay: Induction of apoptosis in human SK-OV-3 cells assessed as early apoptotic cells at 25 umol/L incubated for 24 hrs by Annexin V-FITC/PI staining based flow cytometric analysis (reference value: 4.66 %); assay type: functional; conditions: dose 25 µmol/L, at 25 µM
HeLa = assay: Antiproliferative activity against human HeLa cells assessed as inhibition of cell growth incubated for 72 hrs by MTT assay; assay type: functional, cell-based
SK-OV-3 [2] = assay: Induction of apoptosis in human SK-OV-3 cells assessed as viable cells at 5 umol/L incubated for 24 hrs by Annexin V-FITC/PI staining based flow cytometric analysis (reference value: 89.83 %); assay type: functional; conditions: SK-OV-3, 24 h, dose 5 µmol/L, read-out: Activity
SK-OV-3 [3] = assay: Induction of apoptosis in human SK-OV-3 cells assessed as late apoptotic cells at 5 umol/L incubated for 24 hrs by Annexin V-FITC/PI staining based flow cytometric analysis (reference value: 5.51 %); assay type: functional; conditions: dose 5 µmol/L, at 5 µM
SK-OV-3 [4] = assay: Induction of apoptosis in human SK-OV-3 cells assessed as viable cells at 20 umol/L incubated for 24 hrs by Annexin V-FITC/PI staining based flow cytometric analysis (reference value: 89.83 %); assay type: functional; conditions: SK-OV-3, 24 h, dose 20 µmol/L, read-out: Activity
SK-OV-3 [5] = assay: Induction of apoptosis in human SK-OV-3 cells assessed as necrotic cells at 15 umol/L incubated for 24 hrs by Annexin V-FITC/PI staining based flow cytometric analysis (reference value: 0.00 %); assay type: functional; conditions: dose 15 µmol/L, at 15 µM
T47D = assay: Antiproliferative activity against human T47D cells assessed as inhibition of cell growth incubated for 72 hrs by MTT assay; assay type: functional, cell-based
HepG2 = assay: Antiproliferative activity against human HepG2 cells assessed as inhibition of cell growth incubated for 72 hrs by MTT assay; assay type: functional, cell-based; conditions: HepG2, 72 h
[6] = Cytotoxicity against HEK293T cells assessed as inhibition of cell growth incubated for 72 hrs by MTT assay; assay type: toxicity, cell-based, HEK-293T; conditions: human
SK-OV-3 [7] = assay: Induction of apoptosis in human SK-OV-3 cells assessed as necrotic cells at 25 umol/L incubated for 24 hrs by Annexin V-FITC/PI staining based flow cytometric analysis (reference value: 0.00 %); assay type: functional; conditions: dose 25 µmol/L, at 25 µM
SK-OV-3 [8] = assay: Induction of apoptosis in human SK-OV-3 cells assessed as early apoptotic cells at 20 umol/L incubated for 24 hrs by Annexin V-FITC/PI staining based flow cytometric analysis (reference value: 4.66 %); assay type: functional; conditions: dose 20 µmol/L, at 20 µM
SK-OV-3 [9] = assay: Induction of apoptosis in human SK-OV-3 cells assessed as viable cells at 25 umol/L incubated for 24 hrs by Annexin V-FITC/PI staining based flow cytometric analysis (reference value: 89.83 %); assay type: functional; conditions: SK-OV-3, 24 h, dose 25 µmol/L, read-out: Activity
SK-OV-3 [10] = assay: Induction of apoptosis in human SK-OV-3 cells assessed as viable cells at 15 umol/L incubated for 24 hrs by Annexin V-FITC/PI staining based flow cytometric analysis (reference value: 89.83 %); assay type: functional; conditions: SK-OV-3, 24 h, dose 15 µmol/L, read-out: Activity
SK-OV-3 [11] = assay: Induction of apoptosis in human SK-OV-3 cells assessed as early apoptotic cells at 15 umol/L incubated for 24 hrs by Annexin V-FITC/PI staining based flow cytometric analysis (reference value: 4.66 %); assay type: functional; conditions: dose 15 µmol/L, at 15 µM
SK-OV-3 [12] = assay: Induction of apoptosis in human SK-OV-3 cells assessed as late apoptotic cells at 10 umol/L incubated for 24 hrs by Annexin V-FITC/PI staining based flow cytometric analysis (reference value: 5.51 %); assay type: functional; conditions: dose 10 µmol/L, at 10 µM
SK-OV-3 [13] = assay: Induction of apoptosis in human SK-OV-3 cells assessed as late apoptotic cells at 20 umol/L incubated for 24 hrs by Annexin V-FITC/PI staining based flow cytometric analysis (reference value: 5.51 %); assay type: functional; conditions: dose 20 µmol/L, at 20 µM
SK-OV-3 [14] = assay: Induction of apoptosis in human SK-OV-3 cells assessed as viable cells at 10 umol/L incubated for 24 hrs by Annexin V-FITC/PI staining based flow cytometric analysis (reference value: 89.83 %); assay type: functional; conditions: SK-OV-3, 24 h, dose 10 µmol/L, read-out: Activity
SK-OV-3 [15] = assay: Antiproliferative activity against human SK-OV-3 cells assessed as inhibition of cell growth incubated for 72 hrs by MTT assay; assay type: functional, cell-based; conditions: SK-OV-3, 72 h
SK-OV-3 [16] = assay: Induction of apoptosis in human SK-OV-3 cells assessed as late apoptotic cells at 25 umol/L incubated for 24 hrs by Annexin V-FITC/PI staining based flow cytometric analysis (reference value: 5.51 %); assay type: functional; conditions: dose 25 µmol/L, at 25 µM
SK-OV-3 [17] = assay: Induction of apoptosis in human SK-OV-3 cells assessed as necrotic cells at 10 umol/L incubated for 24 hrs by Annexin V-FITC/PI staining based flow cytometric analysis (reference value: 0.00 %); assay type: functional; conditions: dose 10 µmol/L, at 10 µM
SK-OV-3 [18] = assay: Induction of apoptosis in human SK-OV-3 cells assessed as necrotic cells at 20 umol/L incubated for 24 hrs by Annexin V-FITC/PI staining based flow cytometric analysis (reference value: 0.00 %); assay type: functional; conditions: dose 20 µmol/L, at 20 µM
SK-OV-3 [19] = assay: Induction of apoptosis in human SK-OV-3 cells assessed as late apoptotic cells at 15 umol/L incubated for 24 hrs by Annexin V-FITC/PI staining based flow cytometric analysis (reference value: 5.51 %); assay type: functional; conditions: dose 15 µmol/L, at 15 µM
SK-OV-3 [20] = assay: Induction of apoptosis in human SK-OV-3 cells assessed as necrotic cells at 5 umol/L incubated for 24 hrs by Annexin V-FITC/PI staining based flow cytometric analysis (reference value: 0.00 %); assay type: functional; conditions: dose 5 µmol/L, at 5 µM
MCF7 = assay: Antiproliferative activity against human MCF7 cells assessed as inhibition of cell growth incubated for 72 hrs by MTT assay; assay type: functional, cell-based; conditions: MCF7, 72 h
SK-OV-3 [21] = assay: Induction of apoptosis in human SK-OV-3 cells assessed as early apoptotic cells at 5 umol/L incubated for 24 hrs by Annexin V-FITC/PI staining based flow cytometric analysis (reference value: 4.66 %); assay type: functional; conditions: dose 5 µmol/L, at 5 µM
SK-OV-3 [22] = assay: Induction of apoptosis in human SK-OV-3 cells assessed as early apoptotic cells at 10 umol/L incubated for 24 hrs by Annexin V-FITC/PI staining based flow cytometric analysis (reference value: 4.66 %); assay type: functional; conditions: dose 10 µmol/L, at 10 µM
[23] = Potency index, ratio of test compound IC50 to 2-methoxyestradiol IC50 for cytotoxicity against human HEK293T cells assessed as inhibition of cell growth incubated for 72 hrs by MTT assay; assay type: toxicity, cell-based, HEK-293T; conditions: read-out: Ratio IC50
[24] = Selectivity index, ratio of IC50 for cytotoxicity against HEK293T cells to IC50 for antiproliferative activity against human HepG2 cells; assay type: toxicity, cell-based; conditions: HEK293T cells versus HepG2 cells, read-out: Ratio IC50

| Compound | IC50 (HeLa) [µM] | IC50 (T47D) [µM] | IC50 (HepG2) [µM] | IC50 (SK-OV-3 [15]) [µM] | IC50 (MCF7) [µM] | IC50 at 72 h [6] [µM] | further results |
| --- | --- | --- | --- | --- | --- | --- | --- |
| C[C@]12CC[C@@H]3c4ccc(O)cc4CC[C@H]3[C@@H]1CCC2NC(=O)C[Se]C#N (some centres not stated) | 70.4 | 73.4 | 70.4 | 30.5 | 73.4 | 25.4 |  |
| C[C@]12CC[C@H](O)CC1=CC[C@@H]1[C@@H]2CC[C@]2(C)C(c3cccnc3)=CC[C@@H]12 [ABIRATERONE] | 16.9 | 34.7 | 59.8 | 59.5 | 38.2 | > 100 |  |
| COc1cc2c(cc1O)CC[C@@H]1[C@@H]2CC[C@]2(C)[C@@H](O)CC[C@@H]12 [2-METHOXYESTRADIOL] | 8.6 | 25.2 | 2.3 | 16.5 | > 70 | 4.6 |  |
| COc1ccc2c(c1)CC[C@@H]1[C@@H]2CC[C@]2(C)C(NC(=O)c3ccc(C[Se]C#N)cc3)CC[C@@H]12 (some centres not stated) | 9.6 | 40.8 | 13.8 | 22.4 | 15.8 | 24.6 |  |
| C[C@]12CC[C@@H]3c4cc(N)c(O)cc4CC[C@H]3[C@@H]1CCC2=O | > 70 | 50.5 | 56.3 | > 70 | > 70 | 36.4 |  |
| C[C@]12CC[C@@H]3c4ccc(OCC[Se]C#N)cc4CC[C@H]3[C@@H]1CCC2=O | 20.2 |  | > 100 | 60.3 | 52.3 | 51.1 |  |
| COc1ccc2c(c1)CC[C@@H]1[C@@H]2CC[C@]2(C)C(OC(=O)C[Se]C#N)CC[C@@H]12 (some centres not stated) | 56.8 | 41.5 | 61.1 | 52.4 | 88.3 | 45.2 |  |
| COc1ccc2c(c1)CC[C@@H]1[C@@H]2CC[C@]2(C)C(NC(=O)C[Se]C#N)CC[C@@H]12 (some centres not stated) | 16.2 | 75.9 | 10.5 | 30.6 | 56.1 | 15 |  |
| COc1ccc2c(c1)CC[C@@H]1[C@@H]2CC[C@]2(C)/C(=N/OC(=O)c3ccc(C[Se]C#N)cc3)CC[C@@H]12 | 21 | 24.2 | 80.4 | 69 | 3.9 | 23.2 |  |
| C[C@]12CC[C@@H]3c4ccc(O)cc4CC[C@H]3[C@@H]1CCC2NC(=O)c1ccc(C[Se]C#N)cc1 (some centres not stated) | 13.7 | 25.1 | 16.1 | 27.7 | 17.2 | 13.4 |  |
| COc1ccc2c(c1)CC[C@@H]1[C@@H]2CC[C@]2(C)C(OC(=O)c3ccc(C[Se]C#N)cc3)CC[C@@H]12 (some centres not stated) | 47.5 | > 100 | 35.9 | 56.3 | 55.5 | 29.7 |  |

Now from value to compound, other results behind:

| IC50 (HeLa) [µM] | IC50 (T47D) [µM] | IC50 (HepG2) [µM] | IC50 (SK-OV-3 [15]) [µM] | IC50 (MCF7) [µM] | Compound | IC50 at 72 h [6] [µM] | further results |
| --- | --- | --- | --- | --- | --- | --- | --- |
| 10.2 | 24.9 | 10.1 | 8.2 | 10.1 | C[C@]12CC[C@@H]3c4cc(NC(=O)CCCCCC[Se]C#N)c(O)cc4CC[C@H]3[C@@H]1CCC2=O | 14.4 | Activity (SK-OV-3 [1]): 42.27%; viability at 5 µM (SK-OV-3 [2]): 43.9%; Activity (SK-OV-3 [3]): 28.34%; viability at 20 µM (SK-OV-3 [4]): 12.5%; Activity (SK-OV-3 [5]): 0.2%; Activity (SK-OV-3 [7]): 0.33%; Activity (SK-OV-3 [8]): 29.04%; viability at 25 µM (SK-OV-3 [9]): 6.93%; viability at 15 µM (SK-OV-3 [10]): 16.3%; Activity (SK-OV-3 [11]): 31.88%; Activity (SK-OV-3 [12]): 36.97%; Activity (SK-OV-3 [13]): 58.26%; viability at 10 µM (SK-OV-3 [14]): 30.2%; Activity (SK-OV-3 [16]): 50.48%; Activity (SK-OV-3 [17]): 0.45%; Activity (SK-OV-3 [18]): 0.17%; Activity (SK-OV-3 [19]): 51.6%; Activity (SK-OV-3 [20]): 0.04%; Activity (SK-OV-3 [21]): 27.75%; Activity (SK-OV-3 [22]): 32.38% |
| 5.6 | 59.2 | 42.5 | 20.1 | 8 | C[C@]12CC[C@@H]3c4ccc(OCCCCCCCC[Se]C#N)cc4CC[C@H]3[C@@H]1CCC2=O | 8.9 |  |
| 13.7 | 21.8 | 11 | 15.6 | 17.3 | C[C@]12CC[C@@H]3c4cc(NC(=O)CCCC[Se]C#N)c(O)cc4CC[C@H]3[C@@H]1CCC2=O | 18.2 |  |
| 18.2 | > 100 | > 100 | 54.6 | 48.1 | C[C@]12CC[C@@H]3c4ccc(OCCC[Se]C#N)cc4CC[C@H]3[C@@H]1CCC2=O | 43.9 |  |
| 18.2 | 19.7 | > 100 | 46.6 | 27.5 | C[C@]12CC[C@@H]3c4ccc(OCCCCCCCCCCCC[Se]C#N)cc4CC[C@H]3[C@@H]1CCC2=O | 16.5 |  |
| 13.7 | 24.6 | 31 | 14.4 | 9.3 | C[C@]12CC[C@@H]3c4cc(NC(=O)CCCCCCCCC[Se]C#N)c(O)cc4CC[C@H]3[C@@H]1CCC2=O | 17.2 |  |
| 14 | 75.7 | > 100 | 49.7 | 41.1 | C[C@]12CC[C@@H]3c4ccc(OCCCC[Se]C#N)cc4CC[C@H]3[C@@H]1CCC2=O | 42.8 |  |
| 26.3 | 24.2 | 62.5 | 53.4 | 18.8 | COc1ccc2c(c1)CC[C@@H]1[C@@H]2CC[C@]2(C)/C(=N/OC(=O)C[Se]C#N)CC[C@@H]12 | 25.2 |  |
| 9.4 | 22.8 | 1 | 2.6 | 16.6 | C[C@]12CC[C@@H]3c4cc(NC(=O)C[Se]C#N)c(O)cc4CC[C@H]3[C@@H]1CCC2=O | 15.4 | selectivity ratio at 72 h [23]: 3; selectivity ratio [24]: 15 |
| 26.8 | 37.4 | 68.9 | 49.5 | 39.2 | C[C@]12CC[C@@H]3c4cc(NC(=O)c5ccc(C[Se]C#N)cc5)c(O)cc4CC[C@H]3[C@@H]1CCC2=O | 27.2 |  |

Reference: ChEMBL document CHEMBL5150066, “Synthesis of estrone selenocyanate Compounds, anti-tumor activity evaluation and Structure-activity relationship analysis” (Bioorg Med Chem, 2022)
